Literature values, collected in patent US9603775B2, “Delamination resistant pharmaceutical glass containers containing active pharmaceutical ingredients” (Corning Incorporated, priority 2013, dated 2017).

What was measured:
[1] = system: IL-12 and IL-23 mediated signaling and cytokine cascades; conditions: in vitro models

| Molecule | effect on IL-12 and IL-23 mediated signaling and cytokine cascades [1] | effect on antigen presentation (26S proteasome) |
| --- | --- | --- |
| ustekinumab: human IgG1κ monoclonal antibody that binds the p40 subunit of IL-12 and IL-23 cytokines | disrupt IL-12 and IL-23 mediated signaling and cytokine cascades |  |
| CC(C)C[C@H](NC(=O)[C@H](Cc1ccccc1)NC(=O)c1cnccn1)B(O)O [bortezomib, [(1R)-3-methyl-1-[[(2S)-1-oxo-3-phenyl-2-[(pyrazinylcarbonyl)amino]propyl]amino]butyl]boronic acid] |  | inhibited in a dose dependent manner |
